Where a name gives a salt, the structure may show the parent alone. Read-outs that look alike come from different tables or passages of the source.
Assays:
acetylcholinesterase = molecular target: T1, acetylcholinesterase (Mus musculus, UniProt P21836); assay: biochemical; type: biochemical; details: read-out: AChE inhibitory activity IC50
T1 construct: Using a mouse brain homogenate as a source of acetylcholinesterase; from tissue; host or cells: mouse brain homogenate
Experimental: Acetylcholinesterase Inhibitory Action using Mouse Brain Homogenate
Using a mouse brain homogenate as a source of acetylcholinesterase, the esterase activity was measured by a thiocholine method. Acetylcholine as a substrate, the compound of the invention as a substance to test and 5,5'-dithio-bis(2-nitrobenzoic acid), called also DTNB, were added to the mouse brain homogenate. After incubation, thiocholine produced was reacted with DTNB to form a yellow product.

ddY male mouse = assay: Acute Toxicity Test for ddY Male Mouse; type: in vivo; details: oral to mouse, ddY male mice; for number of deaths / number of animals used, 100 mg: 100 mg (mg/kg); for number of deaths / number of animals used, 300 mg: 300 mg (mg/kg)
Experimental: Acute Toxicity Test for ddY Male Mouse
Acute toxicity test was carried out using ddY male mice.

[1] = mouse brain homogenate, thiocholine method, absorbance at 412 nm

T1 sequence (P21836 32-614): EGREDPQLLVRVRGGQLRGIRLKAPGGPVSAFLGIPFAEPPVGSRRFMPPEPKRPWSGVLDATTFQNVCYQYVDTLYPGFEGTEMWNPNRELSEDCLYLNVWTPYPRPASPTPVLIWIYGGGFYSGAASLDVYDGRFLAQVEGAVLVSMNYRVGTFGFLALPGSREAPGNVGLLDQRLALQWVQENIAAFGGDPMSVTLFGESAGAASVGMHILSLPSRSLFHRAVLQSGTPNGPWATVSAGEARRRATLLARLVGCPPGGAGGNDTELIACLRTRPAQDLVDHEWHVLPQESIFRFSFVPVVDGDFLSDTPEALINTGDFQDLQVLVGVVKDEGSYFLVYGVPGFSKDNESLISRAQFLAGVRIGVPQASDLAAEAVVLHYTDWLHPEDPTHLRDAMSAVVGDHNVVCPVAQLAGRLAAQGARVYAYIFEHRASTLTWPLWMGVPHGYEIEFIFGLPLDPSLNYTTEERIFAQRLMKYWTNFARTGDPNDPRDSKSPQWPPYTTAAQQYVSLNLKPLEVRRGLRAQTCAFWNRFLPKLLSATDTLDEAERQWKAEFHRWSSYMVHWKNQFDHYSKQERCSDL

Structure (SMILES) | IC50 (acetylcholinesterase; [1]) | other results
CN(CCC1CCN(Cc2ccccc2)CC1)C(=O)c1ccc(S(=O)(=O)Cc2ccccc2)cc1 [Example 4, N-methyl-N-[4'-(1'-benzylpiperidine)ethyl]-4-benzylsulfonylbenzamide, hydrochloride] | 0.6 nM | number of deaths / number of animals used, 100 mg (ddY male mouse): 0/3; number of deaths / number of animals used, 300 mg (ddY male mouse): 2/4
CN(CCC1CCN(Cc2ccccc2)CC1)C(=O)c1ccncc1 [Example 5, N-methyl-N-[4'-(1'-benzylpiperidyl)ethyl] isonicotinic acid amide hydrochloride] | 88 nM | number of deaths / number of animals used, 100 mg (ddY male mouse): 1/4; number of deaths / number of animals used, 300 mg (ddY male mouse): 4/4
CN(CCC1CCN(Cc2ccccc2)CC1)C(=O)c1ccc(S(=O)(=O)C2CCCC2)cc1 [Example 6, N-methyl-N-[4'-(1'-benzylpiperidine)ethyl]-4-cyclopentylsulfonylbenzamide.hydrochloride] | 21 nM | –
O=C1c2ccc([N+](=O)[O-])cc2C(=O)N1CCC1CCN(Cc2ccccc2)CC1 [Example 7, N-[2-(N'-benzylpiperidino-4)ethyl]-4-nitrophthalimide.hydrochloride] | 14 nM | number of deaths / number of animals used, 300 mg (ddY male mouse): 0/3
O=C1c2nccnc2C(=O)N1CCC1CCN(Cc2ccccc2)CC1 [Example 8, N-[2-(N'-benzylpiperidino-4)ethyl]-2,3-pyrazinedicarboxylic acid imide] | 80 nM | –
O=C1c2cccc3cccc(c23)C(=O)N1CCC1CCN(Cc2ccccc2)CC1 [Example 9, N-[2-(N'-benzylpiperidino-4)ethyl]-1,8-naphthalimide] | 5.5 nM | –
O=c1[nH]c2ccccc2c(=O)n1CCC1CCN(Cc2ccccc2)CC1 [Example 10, 3-[2-(1-benzyl-4-piperidino)ethyl]-2,4-(1H,3H)-quinazolidione.hydrochloride] | – | number of deaths / number of animals used, 100 mg (ddY male mouse): 3/4
O=C(NCCC1CCN(Cc2ccccc2)CC1)c1ccc2c(c1)C(=O)c1ccccc1C2=O [Example 25] | 4.5 nM | –
O=C(NCCC1CCN(Cc2ccccc2)CC1)c1ccc(C(=O)NCc2ccccc2)cc1 [Example 26] | 9 nM | –
CN(CCC1CCN(Cc2ccccc2)CC1)C(=O)c1ccc(-c2ccccc2)cc1 [Example 32] | 4.3 nM | –
CN(CCC1CCN(Cc2ccc(O)cc2)CC1)C(=O)c1ccc(S(=O)(=O)Cc2ccccc2)cc1 [Example 41] | 0.8 nM | –
O=C1c2cccc([N+](=O)[O-])c2C(=O)N1CCC1CCN(Cc2ccccc2)CC1 [Example 47] | 9 nM | –
CC(=O)Nc1ccc2c(c1)C(=O)N(CCC1CCN(Cc3ccccc3)CC1)C2=O [Example 50] | 2.8 nM | –
O=C(NCc1ccccc1)c1ccc2c(c1)C(=O)N(CCC1CCN(Cc3ccccc3)CC1)C2=O [Example 51] | 2.2 nM | –
CCN(CC)C(=O)c1ccc2c(c1)C(=O)N(CCC1CCN(Cc3ccccc3)CC1)C2=O [Example 52] | 1.5 nM | –
O=C(c1ccccc1)c1ccc2c(c1)C(=O)N(CCC1CCN(Cc3ccccc3)CC1)C2=O [Example 53] | 2.4 nM | –
COc1ccc2c(c1)C(=O)N(CCC1CCN(Cc3ccccc3)CC1)C2=O [Example 54] | – | IC50 (acetylcholinesterase): 8 nM
COc1cc2c(cc1Cl)C(=O)N(CCC1CCN(Cc3ccccc3)CC1)C2=O [Example 56] | 3.3 nM | –
O=C1c2cc3ccccc3cc2C(=O)N1CCC1CCN(Cc2ccccc2)CC1 [Example 57] | 1.2 nM | –
O=C1c2cccnc2C(=O)N1CCC1CCN(Cc2ccccc2)CC1 [Example 58] | 13 nM | –
O=c1[nH]c2cc(Cl)ccc2c(=O)n1CCC1CCN(Cc2ccccc2)CC1 [Example 68] | 4.5 nM | –
O=C(NCCC1CCN(Cc2ccccc2)CC1)c1ccc([N+](=O)[O-])cc1 [Example 71] | 55 nM | –
O=C(NCCC1CCN(Cc2ccccc2)CC1)c1ccc(SCc2ccccc2)cc1 [Example 88] | 49 nM | –
O=C(Nc1ccc2c(c1)C(=O)N(CCC1CCN(Cc3ccccc3)CC1)C2=O)c1ccccc1 [Example 111] | 0.88 nM | –
O=c1c2cc3c(=O)n(CCC4CCN(Cc5ccccc5)CC4)c(=O)c3cc2c(=O)n1CCC1CCN(Cc2ccccc2)CC1 [Example 112] | 0.15 nM | –
Cc1ccc2[nH]c(=O)n(CCC3CCN(Cc4ccccc4)CC3)c(=O)c2c1 [Example 113] | 4.7 nM | –
O=C(NCCC1CCN(Cc2ccccc2)CC1)c1ccc(SCCl)cc1 [Example 115] | 6.7 nM | –
O=C1c2ccc(Cl)cc2C(=O)N1CCC1CCN(Cc2ccccc2)CC1 [Example 133] | 7.9 nM | –
